Assay results: PubChem BioAssay (NCI)
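How tested: cells in 96-well plates exposed to compound for 48 hours at five concentrations. TGI is the concentration that stops growth completely.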

Experiments:
Experiment in all cases: NCI tumour cell line growth inhibition, 48 h
[1] = test system: 786-0 renal
[2] = test system: A549 NSCLC
[3] = test system: ACHN renal
[4] = test system: BT-549 breast
[5] = test system: CAKI-1 renal
[6] = test system: CCRF-CEM leukemia
[7] = test system: COLO 205 colon
[8] = test system: DU-145 prostate
[9] = test system: EKVX NSCLC
[10] = test system: HCC-2998 colon
[11] = test system: HCT-116 colon
[12] = test system: HCT-15 colon
[13] = test system: HL-60(TB) leukemia
[14] = test system: HOP-62 NSCLC
[15] = test system: HS 578T breast
[16] = test system: HT29 colon
[17] = test system: IGROV1 ovarian
[18] = test system: K-562 leukemia
[19] = test system: KM12 colon
[20] = test system: M14 melanoma
[21] = test system: MALME-3M melanoma
[22] = test system: MCF7 breast
[23] = test system: MDA-MB-231 breast
[24] = test system: MDA-MB-435
[25] = test system: MDA-N
[26] = test system: MOLT-4 leukemia
[27] = test system: NCI-H226 lung
[28] = test system: NCI-H23 lung
[29] = test system: NCI-H460 lung
[30] = test system: NCI/ADR-RES ovarian
[31] = test system: OVCAR-3 ovarian
[32] = test system: OVCAR-4 ovarian
[33] = test system: OVCAR-5 ovarian
[34] = test system: OVCAR-8 ovarian
[35] = test system: PC-3 prostate
[36] = test system: RPMI-8226 leukemia
[37] = test system: RXF 393 renal
[38] = test system: SF-268 CNS
[39] = test system: SF-295 CNS
[40] = test system: SK-MEL-2 melanoma
[41] = test system: SK-MEL-28 melanoma
[42] = test system: SK-MEL-5 melanoma
[43] = test system: SK-OV-3 ovarian
[44] = test system: SN12C renal
[45] = test system: SNB-19 CNS
[46] = test system: SNB-75 CNS
[47] = test system: SW-620 colon
[48] = test system: T-47D breast
[49] = test system: TK-10 renal
[50] = test system: U251 CNS
[51] = test system: UACC-257 melanoma
[52] = test system: UACC-62 melanoma
[53] = test system: UO-31 renal

Measured: TGI

CC(C(O)c1ccccc1)N(C)/N=N/c1nc2c([nH]1)c(=O)n(C)c(=O)n2C (stereo not drawn)
> 100 µM: [1] | [2] | [3] | [4] | [5] | [6] | [7] | [8] | [9] | [10] | [11] | [12] | [13] | [14] | [15] | [16] | [17] | [18] | [19] | [20] | [21] | [22] | [23] | [24] | [25] | [26] | [27] | [28] | [29] | [30] | [31] | [32] | [33] | [34] | [35] | [36] | [37] | [38] | [39] | [40] | [41] | [42] | [43] | [44] | [45] | [46] | [47] | [48] | [49] | [50] | [51] | [52] | [53]
